Assays:
[1] = test system: P388 leukemia; assay: P388 Leukemia Model; format: in vivo; conditions: P388-bearing DBA/2 mice; for Survivors: 10 per group
Method: All mice used were kept according to NIH standard regulation. The DBA/2 mice were divided into 4 groups, 10 mice in each group. The P388 innoculum tumor was induced by intraperitoneal injection of 10^6 cells per 0.1 ml innoculum. All doses were made up to a volume of 0.5 ml. Treatment was intraperitoneal injection of 0.5 ml saline (control), 0.002 ml of 10 mg/ml Fetuin (Group I), 0.02 ml (Group II) and 0.2 ml (Group III) for 10 days following tumor transplant. Mortalities were recorded daily. Results are expressed as the percent increase in life span (ILS) in Table 2.
ILS=100×Median Life Span Treated−Median Life Span Control

[2] = test system: PC-12 cells; assay: Neurite outgrowth of PC-12 cells; format: cell-based; conditions: PC-12 cells in 0.5% serum+RPMI; 5uM Fetuin; over 2-3 days
Method: PC-12 cells were seeded in 10% heat-inactivated horse serum, 5% fetal bovine serum in RPMI 1640 medium for 1-2 days. The media were changed to 0.5% serum+RPMI overnight and treated with 5uM Fetuin.

[3] = test system: PC-3 induced tumor; assay: Prostate Tumor Inhibition Model (PC-3, nude mice); format: in vivo, nude adult male mice; conditions: for Avg. Weight Tumor / Avg. Weight mice / Total Weight Tumor: nude mice with PC-3 tumors
Method: The 30-35 g nude adult male mice were used for this study. The inoculum of PC-3 cells applied to induce tumor formation was adjusted with RPMI-1640 to 2×10^7 cells/0.1 ml. To induce tumor formation, a 0.1 ml suspension of PC-3 was injected subcutaneously at a site between the ears using a 26 gauge, ⅜″ needle. The tumors were allowed to grow for 38 days. The mice in the control group received 0.1 ml saline intraperitoneally for 10 days. Mice in the treated group received 10 consecutive 0.1 ml intraperitoneal injections of Fetuin adjusted by dilution in sterile deionized water to deliver dose concentration of 0.1 ml, 0.01 ml and 0.001 ml at 10 mg/ml. Tumors were weighed individually when the mice were sacrificed for subsequent histopathology study.

[4] = Fetuin 0.001 ml × 10 ip (10 mg/ml)
[5] = Fetuin 0.01 ml × 10 ip (10 mg/ml)
[6] = Fetuin 0.1 ml × 10 ip (10 mg/ml)

Fetuin: Fetal bovine fetuin purified from fetal bovine serum by modified Spiro method; 60 Kd glycoprotein, homologue of alpha 2-HS glycoprotein
Survivors ([1]; 0.002 ml of 10 mg/ml Fetuin ip for 10 days, bracket (31) = day): 1 (31) | Survivors ([1]; 0.02 ml of 10 mg/ml Fetuin ip for 10 days, bracket (29) = day): 1 (29) | Survivors ([1]; 0.2 ml of 10 mg/ml Fetuin ip for 10 days (highest dose), bracket (58) = day, listed as Fetal fetuin): 8 | (ILS) Increased Life Span ([1]; 0.002 ml of 10 mg/ml Fetuin ip for 10 days): 29% | (ILS) Increased Life Span ([1]; 0.02 ml of 10 mg/ml Fetuin ip for 10 days): 17.2% | (ILS) Increased Life Span ([1]; 0.2 ml of 10 mg/ml Fetuin ip for 10 days (highest dose)): 141% | neurite outgrowth [2]: neurite outgrowth was observed in many of the cells | prostate tumor size compared to the control group ([3]; highest doses): 40% | Avg. Weight Tumor [3, 4]: 2.03 g | Avg. Weight mice [3, 4]: 33.9 g | Total Weight Tumor [3, 4]: 6.1 g | Avg. Weight Tumor [3, 5]: 2.08 g | Avg. Weight mice [3, 5]: 35.3 g | Total Weight Tumor [3, 5]: 6.24 g | Avg. Weight Tumor [3, 6]: 1.01 g | Avg. Weight mice [3, 6]: 32.0 g | Total Weight Tumor [3, 6]: 3.04 g
